Columns and labels:
Type in all cases: binding
[1] = target: T1, human A1AR (hA1AR) (Homo sapiens, UniProt P30542); assay: Single-point radioligand displacement, [3H]DPCPX; details: 1 μM probe; CHO cell membranes; co-incubated with radioligand 30 min at 25 °C; mean of two experiments
T1 construct: expressed in transfected cells; host or cells: CHO cells (CHOhA1AR), gift of Prof; S.J. Hill, University of Nottingham; membrane fractions
T1 sequence (P30542 1-326): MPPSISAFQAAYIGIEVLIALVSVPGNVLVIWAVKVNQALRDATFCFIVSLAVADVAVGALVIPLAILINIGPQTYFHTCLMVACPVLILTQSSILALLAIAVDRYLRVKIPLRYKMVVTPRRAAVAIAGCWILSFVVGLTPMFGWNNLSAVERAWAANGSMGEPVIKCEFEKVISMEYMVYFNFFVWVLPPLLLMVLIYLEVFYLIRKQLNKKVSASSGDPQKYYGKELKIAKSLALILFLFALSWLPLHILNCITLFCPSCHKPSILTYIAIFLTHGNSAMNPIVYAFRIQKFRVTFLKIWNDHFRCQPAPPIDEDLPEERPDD
Method: (§1) Membrane aliquots containing 15 μg (CHOhA3AR), 5 μg (CHOhA1AR), or 30 μg (HEK293hA2AAR and CHO-spap-A2BAR) of protein were resuspended in assay buffer (A3AR: 50 mM Tris–HCl, pH 8.0, 10 mM MgCl2, 1 mM EDTA, 0.01% CHAPS; A1AR and A2AAR: 50 mM Tris–HCl, pH 7.4; A2BAR: 50 mM Tris–HCl, pH 7.4, 0.1% CHAPS). […] Nonspecific binding was determined in the presence of 100 μM NECA (A3AR), 100 μM CPA (A1AR), 100 μM NECA (A2AAR), and 10 μM ZM241385 (A2BAR). Incubations were terminated by rapid vacuum filtration to separate the bound and free radioligand through prewetted 96-well GF/C filter plates using a PerkinElmer Filtermate harvester. Filters were subsequently washed 12 times with ice-cold wash buffer (A3AR: 50 mM Tris–HCl, pH 8.0, 10 mM MgCl2, 1 mM EDTA; A1AR and A2AAR: 50 mM Tris–HCl, pH 7.4; A2BAR: 50 mM Tris–HCl, pH 7.4, 0.1% BSA). The plates were dried at 55 °C, and MicroscintTM-20 cocktail (PerkinElmer) was added subsequently.
(§2) Single point displacement values shown are mean percentages of two individual experiments performed in duplicate. All pKi values shown are mean values ± SEM of three individual experiments performed in duplicate.

[2] = target: T2, hA1AR (Homo sapiens, UniProt P30542); assay: Full curve displacement assays on the hA1AR; details: from full curve displacement assays (Table S1)
T2 construct: expressed in transfected cells; host or cells: CHO cells (CHOhA1AR), gift of Prof; S.J. Hill, University of Nottingham; membrane fractions
T2 sequence (P30542 1-326): T1 sequence (P30542 1-326)
Method: The affinity of the synthesized AfBPs was determined in radioligand binding experiments. First, single concentration displacement assays were carried out on all four human adenosine receptors, using a final probe concentration of 1 μM (Table 1). […] This quick screen indicated a good selectivity toward the hA3AR over the other human ARs, a trend that was also observed in the case of the parent compound.[34] Next, the ‘apparent’ affinities (depicted as pKi values) toward the hA3AR were determined using full curve displacement assays. To study the presumable covalent mode of action, the apparent affinity was determined with (pre-4 h) and without (pre-0 h) 4 h of pre-incubation of AfBP with hA3AR, prior to addition of radioligand. […] This difference in affinity was reflected in a shift in apparent pKi. […] To further investigate selectivity toward the hA3AR over the hA1AR, full curve displacement assays were carried out on the hA1AR.
[…]. Single point displacement values shown are mean percentages of two individual experiments performed in duplicate. All pKi values shown are mean values ± SEM of three individual experiments performed in duplicate. Statistical analysis was performed using a one-way ANOVA test with multiple comparisons (****p < 0.0001).

[3] = target: T3, human A2BAR (hA2BAR) (Homo sapiens, UniProt P29275); assay: Single-point radioligand displacement, [3H]PSB-603; details: 1 μM probe; CHO-spap cell membranes; co-incubated with radioligand 30 min at 25 °C; mean of two experiments
T3 construct: expressed in transfected cells; host or cells: CHO-spap cells (CHO-spap-hA2BAR), gift of S.J. Dowell, GlaxoSmithKline; membrane fractions
T3 sequence (P29275 1-332): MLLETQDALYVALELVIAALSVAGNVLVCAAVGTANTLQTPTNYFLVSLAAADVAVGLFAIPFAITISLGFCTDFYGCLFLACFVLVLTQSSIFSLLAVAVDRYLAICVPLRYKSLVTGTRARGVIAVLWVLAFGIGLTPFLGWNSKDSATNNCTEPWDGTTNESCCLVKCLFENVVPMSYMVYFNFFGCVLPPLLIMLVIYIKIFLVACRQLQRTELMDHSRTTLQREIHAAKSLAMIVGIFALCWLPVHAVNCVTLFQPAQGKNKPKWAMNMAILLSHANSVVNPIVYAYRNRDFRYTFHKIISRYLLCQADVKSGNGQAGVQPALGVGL
Method: as §1, §2

[4] = target: T4, human A2AAR (hA2AAR) (Homo sapiens, UniProt P29274); assay: Single-point radioligand displacement, [3H]ZM241385; details: 1 μM probe; HEK293 cell membranes; co-incubated with radioligand 30 min at 25 °C; mean of two experiments
T4 construct: expressed in transfected cells; host or cells: HEK293 cells (HEKhA2AAR), gift of Dr. J. Wang, Biogen; membrane fractions
Method: as §1, §2

[5] = target: T5, hA3AR (Homo sapiens, UniProt P0DMS8); assay: Single-point radioligand displacement, [3H]PSB-11; details: 1 μM probe; CHO cell membranes; co-incubated with radioligand 30 min at 25 °C; mean of two experiments
T5 construct: expressed in transfected cells; host or cells: CHO cells (CHOhA3AR), gift of Prof; K.N. Klotz, University of Würzburg; used as membrane fractions or live cells
T5 sequence (P0DMS8 1-318): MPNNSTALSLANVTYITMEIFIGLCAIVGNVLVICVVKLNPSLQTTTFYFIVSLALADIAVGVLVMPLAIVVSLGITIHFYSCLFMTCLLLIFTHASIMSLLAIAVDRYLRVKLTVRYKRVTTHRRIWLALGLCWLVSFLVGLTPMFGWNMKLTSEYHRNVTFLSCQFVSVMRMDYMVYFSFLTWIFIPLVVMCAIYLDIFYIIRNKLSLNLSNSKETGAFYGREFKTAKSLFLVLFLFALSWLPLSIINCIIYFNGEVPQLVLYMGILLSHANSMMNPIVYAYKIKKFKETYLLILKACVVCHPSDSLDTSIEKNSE
Method: as §1, §2

T4 sequence (P29274 whole entry): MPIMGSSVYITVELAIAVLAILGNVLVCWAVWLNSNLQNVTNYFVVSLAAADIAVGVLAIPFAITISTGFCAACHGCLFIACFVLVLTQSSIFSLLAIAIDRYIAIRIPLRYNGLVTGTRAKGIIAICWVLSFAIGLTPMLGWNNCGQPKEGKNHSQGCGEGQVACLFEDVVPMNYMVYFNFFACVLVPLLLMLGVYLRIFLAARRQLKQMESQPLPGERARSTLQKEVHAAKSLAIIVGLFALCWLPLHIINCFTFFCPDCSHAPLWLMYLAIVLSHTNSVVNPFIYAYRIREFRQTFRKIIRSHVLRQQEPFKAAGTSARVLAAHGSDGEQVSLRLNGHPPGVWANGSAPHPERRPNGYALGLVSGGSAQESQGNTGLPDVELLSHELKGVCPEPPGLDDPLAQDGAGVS

C#CCOc1ccn2c(c1)nc1c2c(=O)n(CCC)c(=O)n1CCCNC(=O)c1ccc(S(=O)(=O)F)cc1 [compound 9, 4-((3-(2,4-Dioxo-8-(prop-2-yn-1-yloxy)-3-propyl-3,4-dihydropyrido[2,1-f]purin-1(2H)-yl)propyl)carbamoyl)benzenesulfonyl fluoride]
% specific [3H]DPCPX displacement, hA1AR [1]: 21% | selectivity toward the hA3AR over the hA1AR [2]: > 17 fold | % specific [3H]PSB-603 displacement, hA2BAR [3]: 1% | % specific [3H]ZM241385 displacement, hA2AAR [4]: 7% | % specific [3H]PSB-11 displacement, hA3AR [5]: 95%

C#CCN(CCCn1c(=O)n(CCC)c(=O)c2c1nc1cc(OC)ccn12)C(=O)c1ccc(S(=O)(=O)F)cc1 [compound 5, 4-((3-(8-Methoxy-2,4-dioxo-3-propyl-3,4-dihydropyrido[2,1-f]purin-1(2H)-yl)propyl)(prop-2-yn-1-yl)carbamoyl)benzenesulfonyl fluoride]
% specific [3H]DPCPX displacement, hA1AR [1]: 2% | selectivity toward the hA3AR over the hA1AR [2]: > 100 fold | % specific [3H]PSB-603 displacement, hA2BAR [3]: 10% | % specific [3H]ZM241385 displacement, hA2AAR [4]: 0% | % specific [3H]PSB-11 displacement, hA3AR [5]: 95%
